Here are results for 17 molecules from patent publication US20240376056A1, “PHENYL ACETAMIDE BASED IL-17A MODULATORS AND USES THEREOF” (DiCE Alpha, Inc., priority 2021, published 2024).

The structures appear in SMILES notation.

The assay has as its target T1, IL-17A/A (Homo sapiens, UniProt Q16552).
T1 construct: purchased Genscript Z03228
T1 sequence (Q16552 24-155): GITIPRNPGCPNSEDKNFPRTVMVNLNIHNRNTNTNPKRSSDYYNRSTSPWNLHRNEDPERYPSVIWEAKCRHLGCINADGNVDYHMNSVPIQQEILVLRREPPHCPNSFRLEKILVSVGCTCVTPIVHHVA
Description: HEK-Blue IL-17A/A inhibition assay (SEAP reporter). Type of assay: cell-based. The note with it: HEK-Blue cells (HEK 293 expressing IL-17RA, IL-17RC, Act1); IL-17A/A stimulation; 20 hours; SEAP read at A630; 4-parameter fit. On the procedure:
The HEK-Blue #NC108637 […]. Cells were grown and prepared for assays according to the manufacturer's instructions. This cell line consists of HEK 293 cells that were designed to expressed IL-17R^A, IL-17RC, and the ActI adapter molecule, the combination of which. when stimulated by IL-17A/A activates a NFtcB promoter and drives expression of a recombinant Secreted Alkaline Phosphatase (SEAP) geneprotein. Media from the cells is then added to a development reagent (Quanti-Blue Substrate, Fisher #NC971 1613), and read at A630.
Compounds were titrated in DMSO. with a top final compound concentration of 10 uM, 1 uM, or 0.3 uM, and added to the cells immediately before adding IL-17A/A (Genscript #Z03228). The cells, compound, and IL-17A/A were then incubated for 20 hours before media was removed for SEAP analysis. The resulting inhibition curve was then analyzed using Graphpad Prism 7.0, and IC50 values were determined using a 4-parameter nonlinear fit. DMSO was added to a universal final concentration of 0.1% to optimze background.
Consider `CCC(C1CCC1)[C@H](NC(=O)c1ccnn1CC)C(=O)Nc1ccc([C@H](C)C(=O)NCC(F)(F)F)cc1F` (single isomer, unassigned) [Compound 86], for which the half-inhibitory concentration (IC50) is 0.1 to 1 µM.

Take `CCC(C1CCC1)[C@H](NC(=O)c1ccnn1CC)C(=O)Nc1ccc([C@H](C)C(=O)NCC(F)(F)F)cc1F` (single isomer, unassigned) [Compound 87]: the IC50 lay in the range of 0.1 to 1 µM.

For the molecule `CC(CN1CCOCC1)n1nccc1C(=O)N[C@H](C(=O)Nc1ccc([C@H](C)C(=O)NCC(F)(F)F)cc1F)C(C1CC1)C1CC1` (single isomer, unassigned) [Compound 92], the half-maximal inhibitory concentration (IC50) lay within 0.1 to 1 µM.

As for `CC(CN1CCOCC1)n1nccc1C(=O)N[C@H](C(=O)Nc1ccc([C@H](C)C(=O)NCC(F)(F)F)cc1F)C(C1CC1)C1CC1` (single isomer, unassigned) [Compound 93], the IC50 fell in the range of 0.1 to 1 µM.

Turning to `C[C@H](C(=O)NCC(F)(F)F)c1ccc(NC(=O)[C@@H](NC(=O)c2ccnn2C2CCCNC2)C(C2CC2)C2CC2)c(F)c1` (single isomer, unassigned) [Compound 96], the 50% inhibitory concentration (IC50) is over 1 µM.

For the molecule `C[C@H](C(=O)NCC(F)(F)F)c1ccc(NC(=O)[C@@H](NC(=O)c2ccnn2C2CCCNC2)C(C2CC2)C2CC2)c(F)c1` (single isomer, unassigned) [Compound 97], the IC50 is over 1 µM.

Consider `Cc1cc(NC(=O)[C@@H](NC(=O)c2ccnn2C(C)C)C(C2CC2)C2CC2)c(F)cc1[C@H](C)C(=O)NCC(F)(F)F` (single isomer, unassigned) [Compound 98], for which the half-maximal inhibitory concentration (IC50) was under 0.1 µM.

Consider `Cc1cc(NC(=O)[C@@H](NC(=O)c2ccnn2C(C)C)C(C2CC2)C2CC2)c(F)cc1[C@@H](C)C(=O)NCC(F)(F)F` (single isomer, unassigned) [Compound 99], for which the 50% inhibitory concentration (IC50) is over 1 µM.

With `CCn1nccc1C(=O)N[C@H](C(=O)Nc1ccc(C(COC)C(=O)N(C)CC(F)(F)F)cc1F)C1CCCCCC1` (single isomer, unassigned) [Compound 102, N—((I S)-1-cycloheptyl-2-((2-fluoro-4-(3-methoxy-1-(methyl(2,2,2-trifluoroethyl)amino)-1-oxopropan-2-yl)phenyl)amino)-2-oxoethyl)-1-ethyl-1H-pyrazole-5-carboxamide], the half-inhibitory concentration (IC50) was over 1 µM.

Take `CCn1nccc1C(=O)N[C@H](C(=O)Nc1ccc(C(COC)C(=O)N(C)CC(F)(F)F)cc1F)C1CCCCCC1` (single isomer, unassigned) [Compound 103]: the IC50 was under 0.1 µM.

Regarding `COCC(C(=O)NCC(F)(F)F)c1ccc(NC(=O)[C@@H](NC(=O)c2ccnn2C(C)C)C(C2CC2)C2CC2)c(F)c1` (single isomer, unassigned) [Compound 104], the IC50 was over 1 µM.

As for `COCC(C(=O)NCC(F)(F)F)c1ccc(NC(=O)[C@@H](NC(=O)c2ccnn2C(C)C)C(C2CC2)C2CC2)c(F)c1` (single isomer, unassigned) [Compound 105], the half-inhibitory concentration (IC50) is under 0.1 µM.

With `CC(C(=O)NCC(F)(F)F)c1cc(F)c(NC(=O)[C@@H](NC(=O)c2ccnn2C(C)C)C(C2CC2)C2CC2)cc1Cl` (single isomer, unassigned) [Compound 108], the 50% inhibitory concentration (IC50) is 0.1 to 1 µM.

In the case of `CC(C(=O)NCC(F)(F)F)c1cc(F)c(NC(=O)[C@@H](NC(=O)c2ccnn2C(C)C)C(C2CC2)C2CC2)cc1Cl` (single isomer, unassigned) [Compound 109], the IC50 is 0.1 to 1 µM.

For the molecule `CC(C(=O)NCC(F)(F)F)c1cc(F)c(NC(=O)[C@@H](NC(=O)c2ccnn2C(C)C)C(C2CC2)C2CC2)cc1C#N` (single isomer, unassigned) [Compound 115], the half-inhibitory concentration (IC50) was 0.1 to 1 µM.

As for `CC(C(=O)NCC(F)(F)F)c1cc(F)c(NC(=O)[C@@H](NC(=O)c2ccnn2C(C)C)C(C2CC2)C2CC2)cc1C(N)=O` (single isomer, unassigned) [Compound 116], the IC50 was over 1 µM.

Take `CC(C(=O)NCC(F)(F)F)c1cc(F)c(NC(=O)[C@@H](NC(=O)c2ccnn2C(C)C)C(C2CC2)C2CC2)cc1C(N)=O` (single isomer, unassigned) [Compound 117]: the half-inhibitory concentration (IC50) lay within 0.1 to 1 µM.

By IC50 is commonly meant the midpoint of a concentration-inhibition curve.
